Key:
[1] = Antiproliferative activity against Balb/c mouse splenic B cells preincubated for 30 mins followed by LPS or F(ab')2 donkey anti-mouse IgM and recombinant mouse IL4 stimulation measured after 72 hrs by Alamar Blue reduction assay; format: functional, cell-based
PI3K p110 beta/p85 alpha = PI3K p110 beta/p85 alpha (Homo sapiens, UniProt P42338); test: Inhibition of N-terminal His6-tagged recombinant full-length human p110beta/untagged recombinant full length p85alpha expressed in baculovirus infected Sf21 cells using phosphatidylinositol as substrate in presence of gamma-32P-ATP after 5 mins by thin layer chromatographic method
[2] = target: PI3-kinase p110-delta/p85-alpha (Homo sapiens, UniProt O00329); test: Inhibition of N-terminal His6-tagged recombinant full-length human p110delta/untagged recombinant full length p85alpha expressed in baculovirus infected Sf21 cells using phosphatidylinositol as substrate in presence of gamma-32P-ATP after 5 mins by thin layer chromatographic method
[3] = target: PI3-kinase p110-alpha/p85-alpha (Homo sapiens, UniProt P42336); test: Inhibition of N-terminal His6-tagged recombinant full-length human p110alpha/untagged recombinant full length human p85alpha expressed in baculovirus infected Sf21 cells using phosphatidylinositol as substrate in presence of gamma-32P-ATP after 5 mins by thin layer chromatographic method
[4] = target: Phosphatidylinositol 4,5-bisphosphate 3-kinase catalytic subunit gamma isoform (Homo sapiens, UniProt P48736); test: Inhibition of recombinant human C-terminal His6-tagged p110gamma expressed in insect cells using phosphatidylinositol as substrate in presence of gamma-32P-ATP after 5 mins by thin layer chromatographic method
Phosphatidylinositol 4,5-bisphosphate 3-kinase catalytic subunit gamma isoform, sequence (P48736 whole entry, canonical isoform): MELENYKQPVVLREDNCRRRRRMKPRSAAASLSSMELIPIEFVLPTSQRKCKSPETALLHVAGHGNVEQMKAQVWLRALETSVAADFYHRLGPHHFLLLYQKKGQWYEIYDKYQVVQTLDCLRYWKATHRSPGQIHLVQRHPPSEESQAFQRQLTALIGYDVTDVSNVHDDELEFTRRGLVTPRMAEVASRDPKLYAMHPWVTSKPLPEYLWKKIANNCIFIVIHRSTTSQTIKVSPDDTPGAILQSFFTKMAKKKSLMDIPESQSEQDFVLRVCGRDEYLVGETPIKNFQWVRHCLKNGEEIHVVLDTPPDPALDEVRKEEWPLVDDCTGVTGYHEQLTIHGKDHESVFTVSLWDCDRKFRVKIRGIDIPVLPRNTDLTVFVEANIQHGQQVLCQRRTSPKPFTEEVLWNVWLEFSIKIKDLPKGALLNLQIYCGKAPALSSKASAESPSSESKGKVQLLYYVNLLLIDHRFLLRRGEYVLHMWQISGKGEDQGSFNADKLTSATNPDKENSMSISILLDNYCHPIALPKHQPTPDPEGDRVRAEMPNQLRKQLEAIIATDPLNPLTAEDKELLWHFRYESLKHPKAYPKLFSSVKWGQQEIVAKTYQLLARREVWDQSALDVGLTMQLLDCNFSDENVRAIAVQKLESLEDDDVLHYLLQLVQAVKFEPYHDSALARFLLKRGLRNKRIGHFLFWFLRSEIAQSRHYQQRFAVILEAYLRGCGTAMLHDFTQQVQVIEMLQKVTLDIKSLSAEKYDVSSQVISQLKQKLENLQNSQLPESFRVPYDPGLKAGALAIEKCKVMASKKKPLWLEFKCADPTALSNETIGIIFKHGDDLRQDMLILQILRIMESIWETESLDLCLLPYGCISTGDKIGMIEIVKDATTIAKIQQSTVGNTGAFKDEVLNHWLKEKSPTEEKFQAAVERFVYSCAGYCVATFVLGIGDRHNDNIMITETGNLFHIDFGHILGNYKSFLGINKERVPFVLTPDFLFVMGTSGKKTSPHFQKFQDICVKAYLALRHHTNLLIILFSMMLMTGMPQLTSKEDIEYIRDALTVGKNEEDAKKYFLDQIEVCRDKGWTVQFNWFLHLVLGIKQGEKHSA

PI3-kinase p110-delta/p85-alpha, sequence (P27986 whole entry): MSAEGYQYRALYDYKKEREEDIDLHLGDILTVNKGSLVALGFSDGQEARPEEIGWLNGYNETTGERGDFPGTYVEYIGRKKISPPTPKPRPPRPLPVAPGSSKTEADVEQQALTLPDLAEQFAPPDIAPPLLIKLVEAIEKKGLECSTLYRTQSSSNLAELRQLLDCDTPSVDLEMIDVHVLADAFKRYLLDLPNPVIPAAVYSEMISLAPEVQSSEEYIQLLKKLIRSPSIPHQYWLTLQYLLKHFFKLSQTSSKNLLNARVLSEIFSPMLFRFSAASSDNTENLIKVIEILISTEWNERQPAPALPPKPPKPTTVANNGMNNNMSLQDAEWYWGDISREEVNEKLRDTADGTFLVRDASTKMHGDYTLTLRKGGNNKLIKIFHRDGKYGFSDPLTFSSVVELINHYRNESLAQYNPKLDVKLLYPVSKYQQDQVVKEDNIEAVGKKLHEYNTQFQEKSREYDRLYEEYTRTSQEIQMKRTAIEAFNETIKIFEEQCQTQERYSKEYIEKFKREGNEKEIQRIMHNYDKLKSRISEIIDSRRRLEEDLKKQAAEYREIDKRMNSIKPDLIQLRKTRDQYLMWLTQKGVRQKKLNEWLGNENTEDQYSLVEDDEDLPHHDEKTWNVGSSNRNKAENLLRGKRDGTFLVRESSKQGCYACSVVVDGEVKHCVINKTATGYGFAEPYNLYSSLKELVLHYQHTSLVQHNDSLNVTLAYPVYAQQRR
PI3-kinase p110-delta/p85-alpha, sequence (O00329 whole entry): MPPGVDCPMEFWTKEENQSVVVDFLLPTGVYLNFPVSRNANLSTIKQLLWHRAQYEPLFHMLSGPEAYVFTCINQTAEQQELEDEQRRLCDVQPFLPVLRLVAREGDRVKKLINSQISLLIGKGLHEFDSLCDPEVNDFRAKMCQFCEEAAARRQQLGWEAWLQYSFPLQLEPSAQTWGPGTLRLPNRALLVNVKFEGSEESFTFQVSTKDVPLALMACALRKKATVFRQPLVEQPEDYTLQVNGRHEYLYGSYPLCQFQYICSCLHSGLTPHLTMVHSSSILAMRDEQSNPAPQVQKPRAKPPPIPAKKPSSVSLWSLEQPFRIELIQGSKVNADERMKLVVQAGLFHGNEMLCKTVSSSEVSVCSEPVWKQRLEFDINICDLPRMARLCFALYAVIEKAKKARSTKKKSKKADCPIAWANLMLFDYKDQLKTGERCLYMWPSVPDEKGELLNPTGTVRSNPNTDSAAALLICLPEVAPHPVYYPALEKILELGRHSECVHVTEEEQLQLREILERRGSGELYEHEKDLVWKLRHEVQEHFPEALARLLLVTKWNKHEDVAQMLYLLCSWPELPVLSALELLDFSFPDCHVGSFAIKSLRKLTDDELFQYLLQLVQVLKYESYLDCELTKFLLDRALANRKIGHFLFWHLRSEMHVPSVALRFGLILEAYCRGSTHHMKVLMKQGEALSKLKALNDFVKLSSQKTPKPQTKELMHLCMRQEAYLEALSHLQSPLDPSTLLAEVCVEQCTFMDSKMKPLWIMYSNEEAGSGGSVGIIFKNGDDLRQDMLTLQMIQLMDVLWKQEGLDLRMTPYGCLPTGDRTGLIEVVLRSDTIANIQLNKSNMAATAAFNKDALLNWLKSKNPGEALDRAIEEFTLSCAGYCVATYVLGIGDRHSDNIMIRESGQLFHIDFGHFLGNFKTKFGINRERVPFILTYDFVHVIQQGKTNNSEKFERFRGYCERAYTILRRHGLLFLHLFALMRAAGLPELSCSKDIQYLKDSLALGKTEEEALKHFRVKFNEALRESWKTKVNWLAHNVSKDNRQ
PI3-kinase p110-alpha/p85-alpha, sequence (P27986 whole entry, canonical isoform): as the sequence (P27986 whole entry) above
PI3-kinase p110-alpha/p85-alpha, sequence (P42336 whole entry, canonical isoform): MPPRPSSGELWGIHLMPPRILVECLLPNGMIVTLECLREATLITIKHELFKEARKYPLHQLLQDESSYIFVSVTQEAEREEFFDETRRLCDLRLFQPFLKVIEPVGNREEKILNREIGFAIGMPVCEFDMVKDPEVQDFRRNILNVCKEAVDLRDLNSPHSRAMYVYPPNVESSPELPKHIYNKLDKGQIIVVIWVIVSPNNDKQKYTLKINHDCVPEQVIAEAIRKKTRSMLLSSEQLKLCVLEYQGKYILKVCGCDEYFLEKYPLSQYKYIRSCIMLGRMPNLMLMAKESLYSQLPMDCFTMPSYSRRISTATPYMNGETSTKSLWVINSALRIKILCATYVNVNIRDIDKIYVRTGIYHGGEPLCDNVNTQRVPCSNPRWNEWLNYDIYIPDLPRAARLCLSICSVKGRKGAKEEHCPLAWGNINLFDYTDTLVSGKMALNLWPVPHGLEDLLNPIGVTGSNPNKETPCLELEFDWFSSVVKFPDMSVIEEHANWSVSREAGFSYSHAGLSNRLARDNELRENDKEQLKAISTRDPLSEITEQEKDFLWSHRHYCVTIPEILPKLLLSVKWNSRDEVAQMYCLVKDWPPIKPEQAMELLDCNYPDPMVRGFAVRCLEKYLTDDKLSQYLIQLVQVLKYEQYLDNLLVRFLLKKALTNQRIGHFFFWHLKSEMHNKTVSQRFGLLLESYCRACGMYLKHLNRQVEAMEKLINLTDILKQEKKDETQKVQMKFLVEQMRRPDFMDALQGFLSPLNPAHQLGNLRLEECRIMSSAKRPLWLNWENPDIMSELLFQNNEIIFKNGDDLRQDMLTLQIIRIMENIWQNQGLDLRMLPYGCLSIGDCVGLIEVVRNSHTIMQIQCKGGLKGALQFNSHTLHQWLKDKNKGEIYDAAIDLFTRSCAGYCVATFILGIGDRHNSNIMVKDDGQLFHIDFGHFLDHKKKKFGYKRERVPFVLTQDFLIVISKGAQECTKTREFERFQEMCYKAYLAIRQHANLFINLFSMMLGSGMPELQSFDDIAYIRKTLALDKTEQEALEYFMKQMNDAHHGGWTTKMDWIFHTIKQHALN
PI3K p110 beta/p85 alpha, sequence (P27986 whole entry): as the sequence (P27986 whole entry) above
PI3K p110 beta/p85 alpha, sequence (P42338 whole entry): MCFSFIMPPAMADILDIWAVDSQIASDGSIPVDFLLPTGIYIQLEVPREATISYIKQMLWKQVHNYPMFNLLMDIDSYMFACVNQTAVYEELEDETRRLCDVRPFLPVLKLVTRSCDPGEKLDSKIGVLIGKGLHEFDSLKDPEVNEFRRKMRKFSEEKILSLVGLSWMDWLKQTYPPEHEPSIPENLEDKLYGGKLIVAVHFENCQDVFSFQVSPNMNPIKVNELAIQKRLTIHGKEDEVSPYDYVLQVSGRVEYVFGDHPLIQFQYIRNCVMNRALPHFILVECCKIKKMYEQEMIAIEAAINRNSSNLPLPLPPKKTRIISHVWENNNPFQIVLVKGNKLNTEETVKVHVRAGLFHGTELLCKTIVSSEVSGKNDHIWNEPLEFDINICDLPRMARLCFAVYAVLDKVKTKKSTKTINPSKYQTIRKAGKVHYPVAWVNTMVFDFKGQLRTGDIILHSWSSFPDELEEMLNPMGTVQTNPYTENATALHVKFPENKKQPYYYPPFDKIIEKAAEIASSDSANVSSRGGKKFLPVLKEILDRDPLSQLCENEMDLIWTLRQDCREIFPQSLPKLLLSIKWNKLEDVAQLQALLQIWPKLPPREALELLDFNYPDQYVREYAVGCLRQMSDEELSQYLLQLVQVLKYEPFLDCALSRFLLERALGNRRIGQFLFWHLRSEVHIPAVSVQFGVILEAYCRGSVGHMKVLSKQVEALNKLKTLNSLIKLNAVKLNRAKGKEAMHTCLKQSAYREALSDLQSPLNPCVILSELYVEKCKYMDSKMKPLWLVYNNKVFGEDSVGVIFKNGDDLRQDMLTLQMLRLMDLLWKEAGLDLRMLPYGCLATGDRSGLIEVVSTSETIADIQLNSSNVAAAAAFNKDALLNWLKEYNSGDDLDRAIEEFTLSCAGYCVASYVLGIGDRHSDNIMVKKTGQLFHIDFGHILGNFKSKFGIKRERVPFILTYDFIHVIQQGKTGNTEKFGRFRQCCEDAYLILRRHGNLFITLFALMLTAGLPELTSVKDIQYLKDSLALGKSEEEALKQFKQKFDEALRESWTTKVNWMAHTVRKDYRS

Compound	IC50 (PI3K p110 beta/p85 alpha)	IC50 [2]	IC50 [3]	IC50 [4]	EC50 [1]
Cc1ccccc1-n1c(Cn2nc(-c3cnn(C)c3)c3c(N)ncnc32)cc2cccc(C)c2c1=O	> 10 µM	< 10 µM	> 10 µM	< 1 µM	
Cc1cccc2cc(Cn3nc(C#N)c4c(N)ncnc43)n(-c3ccccc3F)c(=O)c12	> 10 µM	< 0.1 µM	> 10 µM	> 10 µM	< 1 µM
Cc1cccc2cc(Cn3nc(C#C[C@@H](C)O)c4c(N)ncnc43)n(C3CCCC3)c(=O)c12	< 10 µM	< 0.1 µM	> 10 µM	< 10 µM	
Cc1cccc2cc(Cn3nc(-c4cccc(O)c4)c4c(N)ncnc43)n(-c3ccccc3OCCN3CCOCC3)c(=O)c12	> 10 µM	< 0.1 µM	> 10 µM	< 1 µM	< 0.1 µM
Cc1cccc2cc(Cn3nc(-c4cn[nH]c4)c4c(N)ncnc43)n(-c3ccccc3Cl)c(=O)c12	> 10 µM	0.1 to 10 µM	> 10 µM	< 1 µM	< 0.1 µM
Cc1cccc2cc(Cn3nc(-c4cccc(F)c4)c4c(N)ncnc43)n(-c3ccccc3F)c(=O)c12	> 10 µM	< 10 µM	> 10 µM	< 10 µM	< 10 µM
Cc1cccc2cc(Cn3nc(C#CCO)c4c(N)ncnc43)n(-c3ccccc3F)c(=O)c12	> 10 µM	< 0.1 µM	> 10 µM	< 1 µM	< 1 µM
Cc1cccc2cc(Cn3nc(I)c4c(N)ncnc43)n(-c3ccccc3OCCN3CCOCC3)c(=O)c12	> 10 µM	< 0.1 µM	> 10 µM	< 1 µM	< 1 µM
Cc1ccccc1-n1c(Cn2nc(/C=C3/SC(=O)NC3=O)c3c(N)ncnc32)cc2cccc(C)c2c1=O	< 10 µM	< 0.1 µM	< 10 µM	< 0.1 µM	< 0.1 µM
COc1cc(F)cc(-c2nn(Cc3cc4cccc(C)c4c(=O)n3-c3ccccc3C)c3ncnc(N)c23)c1	> 10 µM	< 1 µM	> 10 µM	< 10 µM	
Cc1cccc2cc(Cn3nc(-c4ccn[nH]4)c4c(N)ncnc43)n(-c3ccccc3F)c(=O)c12	> 10 µM	< 1 µM	> 10 µM	< 10 µM	
Cc1cccc2cc(Cn3nc(I)c4c(N)ncnc43)n(C(C)C)c(=O)c12	> 10 µM	0.1 to 10 µM	> 10 µM	> 10 µM	
Cc1ccccc1-n1c(Cn2nc(CN3CCOCC3)c3c(N)ncnc32)cc2cccc(C)c2c1=O	> 10 µM	< 10 µM	> 10 µM	> 10 µM	
Cc1cccc2cc(Cn3nc(-c4cnn(C)c4)c4c(N)ncnc43)n(-c3ccccc3F)c(=O)c12	> 10 µM	< 10 µM	> 10 µM	< 10 µM	
Cc1ccccc1-n1c(Cn2nc(/C=C/C(=O)N3CCOCC3)c3c(N)ncnc32)cc2cccc(C)c2c1=O	> 10 µM	< 1 µM	> 10 µM	> 10 µM	

The next lines start with results.

IC50 (PI3K p110 beta/p85 alpha)	IC50 [2]	IC50 [3]	IC50 [4]	Compound	EC50 [1]
> 10 µM	< 1 µM	> 10 µM	> 10 µM	Cc1ccccc1-n1c(Cn2nc(C#C[C@@H](C)O)c3c(N)ncnc32)cc2cccc(F)c2c1=O	< 10 µM
> 10 µM	< 10 µM	> 10 µM	< 1 µM	Cc1ccccc1-n1c(Cn2nc(-c3ccc(F)cc3)c3c(N)ncnc32)cc2cccc(C)c2c1=O	< 10 µM
> 10 µM	< 1 µM	> 10 µM	< 10 µM	Cc1ccccc1-n1c(Cn2nc(I)c3c(N)ncnc32)cc2cccc(F)c2c1=O	< 1 µM
> 10 µM	< 1 µM	> 10 µM	< 10 µM	Cc1cccc2cc(Cn3nc(Br)c4c(N)ncnc43)n(-c3ccccc3F)c(=O)c12	< 1 µM
< 1 µM	< 0.1 µM	< 10 µM	< 1 µM	Cc1cccc2cc(Cn3nc(-c4cc(O)cc(F)c4)c4c(N)ncnc43)n(C(C)C)c(=O)c12	< 0.1 µM
> 10 µM	< 1 µM	> 10 µM	< 10 µM	Nc1ncnc2c1c(-c1cn[nH]c1)nn2Cc1cc2cccc(F)c2c(=O)n1-c1ccccc1F	
> 10 µM	< 0.1 µM	> 10 µM	< 1 µM	Cc1cccc2cc(Cn3nc(C#C[C@@H](C)O)c4c(N)ncnc43)n(-c3ccccc3Cl)c(=O)c12	< 1 µM
> 10 µM	< 0.1 µM	> 10 µM	< 10 µM	Cc1ccccc1-n1c(Cn2nc(C#N)c3c(N)ncnc32)cc2cccc(C)c2c1=O	< 0.1 µM
< 10 µM	< 0.1 µM	< 10 µM	< 0.1 µM	Cc1cccc2cc(Cn3nc(/C=C4/SC(=O)NC4=O)c4c(N)ncnc43)n(-c3ccccc3F)c(=O)c12	< 0.1 µM
> 10 µM	< 10 µM	> 10 µM	< 1 µM	Cc1ccccc1-n1c(Cn2nc(-c3cccc(Cl)c3)c3c(N)ncnc32)cc2cccc(C)c2c1=O	< 10 µM
> 10 µM	< 0.1 µM	> 10 µM	< 10 µM	Cc1cccc2cc(Cn3nc(I)c4c(N)ncnc43)n(C3CCC3)c(=O)c12	< 1 µM
> 10 µM	< 0.1 µM	> 10 µM	< 1 µM	Cc1cccnc1-n1c(Cn2nc(-c3cccc(O)c3)c3c(N)ncnc32)cc2cccc(C)c2c1=O	< 0.1 µM
> 10 µM		> 10 µM	< 10 µM	Cc1ccccc1-n1c(CN(C)c2ncnc3[nH]cnc23)cc2cccc(C)c2c1=O	
> 10 µM	< 10 µM	> 10 µM	< 10 µM	CCN(Cc1cc2cccc(C)c2c(=O)n1-c1ccccc1C)c1ncnc2[nH]cnc12	
> 10 µM	< 1 µM	> 10 µM	< 10 µM	C=Cc1nn(Cc2cc3cccc(C)c3c(=O)n2-c2ccccc2F)c2ncnc(N)c12	
> 10 µM		> 10 µM	< 1 µM	Cc1ccccc1-n1c(Cn2nc(-c3cnn(CCO)c3)c3c(N)ncnc32)cc2cccc(C)c2c1=O	< 1 µM
< 10 µM	< 0.1 µM	> 10 µM	< 1 µM	Cc1cccc2cc(Cn3nc(-c4cccc(O)c4)c4c(N)ncnc43)n(C3CCCC3)c(=O)c12	
> 10 µM	< 10 µM	> 10 µM	> 10 µM	Cc1ccccc1-n1c(Cn2nc(CCC(=O)N3CCOCC3)c3c(N)ncnc32)cc2cccc(C)c2c1=O	
	< 0.1 µM	> 10 µM	< 1 µM	Cc1ccccc1-n1c(Cn2nc(Cl)c3c(N)ncnc32)cc2cccc(C)c2c1=O	< 1 µM
> 10 µM	< 10 µM	> 10 µM	> 10 µM	Cc1cccc2cc(Cn3nc(/C=C4/CCNC4=O)c4c(N)ncnc43)n(-c3ccccc3F)c(=O)c12	
> 10 µM	< 1 µM	> 10 µM	< 10 µM	Cc1ccccc1-n1c(Cn2nc(CCC(N)=O)c3c(N)ncnc32)cc2cccc(C)c2c1=O	

— ChEMBL document CHEMBL3879901, “Substituted isoquinolin-1(2H)-ones, and methods of use thereof” (2012)
